Test [1] has as its system Glo-Response ARE-luc2P HEK293 cell line. The test can be described thus: ARE luciferase reporter cell-based assay.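 Also: luciferase signal tracks Nrf2 activation of the ARE once compounds disrupt KEAP1-Nrf2 binding, read with One-Glo reagent, DMSO serving as low control.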 To be noted: Homo sapiens, HEK293, 24 h, average of results obtained. Background: Reporter assays use an easily measured gene product as a stand-in for the process of interest.
Test [2] addresses Kelch domain of human KEAP1 (321-624 aa) (Homo sapiens (Human), UniProt Q14145). Nature of the test: KEAP1 KELCH ThermoFluor binding assay.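 Also: Ligand-induced melting temperature shift of E. coli-expressed KEAP1 Kelch protein, Kd estimated from concentration-response curves of ΔTm.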 Particulars: KEAP Kelch […], 1,8-ANS, pH 7.0, average of results obtained, read-out: Tf Kd. A general note: DSF heats the sample and reads unfolding from a dye or from intrinsic fluorescence.

These results are taken from US10947252B2, “Inhibitors of KEAP1-Nrf2 protein-protein interaction” (Janssen Pharmaceutica NV, priority 2018, dated 2021).

Some results are limits rather than exact numbers.

As usually defined, the EC50 is the midpoint of the concentration-response curve. A higher EC50 goes with weaker potency. Broadly, the Kd is the free concentration of one partner at which half of the binding sites on the other are occupied at equilibrium, for simple one-to-one binding.

Kelch domain of human KEAP1 (321-624 aa), sequence (Q14145 321-624): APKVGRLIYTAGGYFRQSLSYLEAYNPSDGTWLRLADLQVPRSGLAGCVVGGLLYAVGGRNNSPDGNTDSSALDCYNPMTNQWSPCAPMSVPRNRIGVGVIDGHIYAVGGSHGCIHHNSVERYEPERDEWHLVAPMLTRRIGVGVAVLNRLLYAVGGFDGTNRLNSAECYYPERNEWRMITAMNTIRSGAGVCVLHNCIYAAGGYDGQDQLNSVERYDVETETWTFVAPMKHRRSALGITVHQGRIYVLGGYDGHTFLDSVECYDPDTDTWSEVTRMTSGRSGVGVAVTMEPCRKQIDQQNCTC

In test [1], `Cc1ccc([C@H](CC(=O)O)c2ccn3c(C(F)F)nnc3c2C)cc1CN1CC2(COC2)Oc2ccccc2S1(=O)=O` (single isomer, unassigned) [Example 467, (*S)-3-(3-(Difluoromethyl)-8-methyl-[1,2,4]triazolo[4,3-a]pyridin-7-yl)-3-(3-((1,1-dioxidospiro[benzo[b][1,4,5]oxathiazepine-4,3′-oxetan]-2(3H)-yl)methyl)-4-methylphenyl)propanoic Acid] displayed an EC50 of 79.3 nM. The Kd in test [2] was less than 1 nM.

In test [1], `Cc1ccc([C@H](CC(=O)O)c2ccn3c(C(F)F)nnc3c2C)cc1CN1CC2(COC2)Oc2ncccc2S1(=O)=O` (single isomer, unassigned) [Example 470, (*S)-3-(3-(Difluoromethyl)-8-methyl-[1,2,4]triazolo[4,3-a]pyridin-7-yl)-3-(3-((1′,1′-dioxidospiro[oxetane-3,4′-pyrido[2,3-b][1,4,5]oxathiazepin]-2′(3′H)-yl)methyl)-4-methylphenyl)propanoic Acid] showed an EC50 of 472 nM. In addition, in test [2], the Kd was less than 1 nM.

`Cc1ccc([C@@H](CC(=O)O)c2ccn3c(C(F)F)nnc3c2C)cc1CN1CC2(COC2)Oc2ncccc2S1(=O)=O` (single isomer, unassigned) [Example 471, (*R)-3-(3-(Difluoromethyl)-8-methyl-[1,2,4]triazolo[4,3-a]pyridin-7-yl)-3-(3-((1′,1′-dioxidospiro[oxetane-3,4′-pyrido[2,3-b][1,4,5]oxathiazepin]-2′(3′H)-yl)methyl)-4-methylphenyl)propanoic Acid] gave an EC50 in test [1] of 2630 nM. Further, the Kd in test [2] was less than 1 nM.

For the compound `Cc1ccc([C@H](CC(=O)O)c2ccn3c(C(F)F)nnc3c2C)cc1CN1CC2(CC2)Oc2ncccc2S1(=O)=O` (single isomer, unassigned) [Example 473, (*S)-3-(3-(Difluoromethyl)-8-methyl-[1,2,4]triazolo[4,3-a]pyridin-7-yl)-3-(3-((1′,1′-dioxidospiro[cyclopropane-1,4′-pyrido[2,3-b][1,4,5]oxathiazepin]-2′(3′H)-yl)methyl)-4-methylphenyl)propanoic Acid], in test [1], it took 104 nM to reach a half-maximal effect (EC50). For the same compound, in test [2], the Kd was less than 1 nM.

For `Cc1ccc([C@@H](CC(=O)O)c2ccn3c(C(F)F)nnc3c2C)cc1CN1CC2(CC2)Oc2ncccc2S1(=O)=O` (single isomer, unassigned) [Example 474, (*R)-3-(3-(Difluoromethyl)-8-methyl-[1,2,4]triazolo[4,3-a]pyridin-7-yl)-3-(3-((1′,1′-dioxidospiro[cyclopropane-1,4′-pyrido[2,3-b][1,4,5]oxathiazepin]-2′(3′H)-yl)methyl)-4-methylphenyl)propanoic Acid], a half-maximal response in test [1] (EC50) required 1580 nM. Further, the Kd in test [2] is less than 1 nM.

As to `Cc1ccc([C@H](CC(=O)O)c2ccn3c(C(F)F)nnc3c2C)cc1CN1C[C@]2(C)CCCN2c2ncccc2S1(=O)=O` (single isomer, unassigned) [Example 476, (*S)-3-(3-(Difluoromethyl)-8-methyl-[1,2,4]triazolo[4,3-a]pyridin-7-yl)-3-(4-methyl-3-(((*S)-7a-methyl-5,5-dioxido-7a,8,9,10-tetrahydropyrido[2,3-f]pyrrolo[2,1-d][1,2,5]thiadiazepin-6(7H)-yl)methyl)phenyl)propanoic Acid], the EC50 in test [1] turned out to be 219 nM. Also, in test [2], the Kd was less than 1 nM.

In test [1], `Cc1ccc([C@@H](CC(=O)O)c2ccn3c(C(F)F)nnc3c2C)cc1CN1C[C@]2(C)CCCN2c2ncccc2S1(=O)=O` (single isomer, unassigned) [Example 477, (*R)-3-(3-(Difluoromethyl)-8-methyl-[1,2,4]triazolo[4,3-a]pyridin-7-yl)-3-(4-methyl-3-(((*S)-7a-methyl-5,5-dioxido-7a,8,9,10-tetrahydropyrido[2,3-f]pyrrolo[2,1-d][1,2,5]thiadiazepin-6(7H)-yl)methyl)phenyl)propanoic Acid] had an EC50 of 1680 nM. The Kd in test [2] is 2.61 nM.

Take `Cc1ccc([C@@H](CC(=O)O)c2ccn3c(C(F)(F)F)nnc3c2C)nc1CN1C[C@@H]2CCCCN2c2ncccc2S1(=O)=O` (single isomer, unassigned) [Example 479, (*S)-3-(6-(((*S)-5,5-Dioxido-7,7a,8,9,10,11-hexahydro-6H-dipyrido[2,1-d:2′,3′-f][1,2,5]thiadiazepin-6-yl)methyl)-5-methylpyridin-2-yl)-3-(8-methyl-3-(trifluoromethyl)-[1,2,4]triazolo[4,3-a]pyridin-7-yl)propanoic Acid]: in test [1], the midpoint of the response, the EC50, lay at 48.8 nM. Moreover, the Kd in test [2] was less than 1 nM.

Regarding `Cc1ccc([C@H](CC(=O)O)c2ccn3c(C(F)(F)F)nnc3c2C)nc1CN1C[C@@H]2CCCCN2c2ncccc2S1(=O)=O` (single isomer, unassigned) [Example 480, (*R)-3-(6-(((*S)-5,5-Dioxido-7,7a,8,9,10,11-hexahydro-6H-dipyrido[2,1-d:2′,3′-f][1,2,5]thiadiazepin-6-yl)methyl)-5-methylpyridin-2-yl)-3-(8-methyl-3-(trifluoromethyl)-[1,2,4]triazolo[4,3-a]pyridin-7-yl)propanoic Acid], it took 252 nM to reach a half-maximal effect in test [1] (EC50). For the same compound, the Kd in test [2] was less than 1 nM.

The compound `Cc1ccc([C@@H](CC(=O)O)c2ccn3c(C(F)(F)F)nnc3c2C)nc1CN1CC2(CC2)Oc2ncccc2S1(=O)=O` (single isomer, unassigned) [Example 482, (*S)-3-(6-((1′,1′-Dioxidospiro[cyclopropane-1,4′-pyrido[2,3-b][1,4,5]oxathiazepin]-2′(3′H)-yl)methyl)-5-methylpyridin-2-yl)-3-(8-methyl-3-(trifluoromethyl)-[1,2,4]triazolo[4,3-a]pyridin-7-yl)propanoic Acid] registered an EC50 in test [1] of 701 nM. Moreover, the equilibrium dissociation constant (Kd) in test [2] was less than 1 nM.

For the compound `Cc1ccc([C@H](CC(=O)O)c2ccn3c(C(F)(F)F)nnc3c2C)nc1CN1CC2(CC2)Oc2ncccc2S1(=O)=O` (single isomer, unassigned) [Example 483, (*R)-3-(6-((1′,1′-Dioxidospiro[cyclopropane-1,4′-pyrido[2,3-b][1,4,5]oxathiazepin]-2′(3′H)-yl)methyl)-5-methylpyridin-2-yl)-3-(8-methyl-3-(trifluoromethyl)-[1,2,4]triazolo[4,3-a]pyridin-7-yl)propanoic Acid], the EC50 in test [1] was determined as 3450 nM. Moreover, the Kd in test [2] was less than 1 nM.

The compound `Cc1ccc([C@@H](CC(=O)O)c2ccn3c(C(F)(F)F)nnc3c2C)nc1CN1CC2(COC2)Oc2ccccc2S1(=O)=O` (single isomer, unassigned) [Example 485, (*S)-3-(6-((1,1-dioxidospiro[benzo[b][1,4,5]oxathiazepine-4,3′-oxetan]-2(3H)-yl)methyl)-5-methylpyridin-2-yl)-3-(8-methyl-3-(trifluoromethyl)-[1,2,4]triazolo[4,3-a]pyridin-7-yl)propanoic Acid] displayed an EC50 in test [1] of 156 nM. The Kd in test [2] is less than 1 nM.

Consider `Cc1ccc([C@H](CC(=O)O)c2ccn3c(C(F)(F)F)nnc3c2C)nc1CN1CC2(COC2)Oc2ccccc2S1(=O)=O` (single isomer, unassigned) [Example 486, (*R)-3-(6-((1,1-dioxidospiro[benzo[b][1,4,5]oxathiazepine-4,3′-oxetan]-2(3H)-yl)methyl)-5-methylpyridin-2-yl)-3-(8-methyl-3-(trifluoromethyl)-[1,2,4]triazolo[4,3-a]pyridin-7-yl)propanoic Acid], for which the EC50 in test [1] amounted to 333 nM. The Kd in test [2] is 1.83 nM.

For the compound `Cc1cnc2c(c1)S(=O)(=O)N(Cc1nc([C@H](CC(=O)O)c3ccn4c(C(F)(F)F)nnc4c3C)ccc1C)C[C@@H]1CCCCN21` (single isomer, unassigned) [Example 489, (*R)-3-(8-Methyl-3-(trifluoromethyl)-[1,2,4]triazolo[4,3-a]pyridin-7-yl)-3-(5-methyl-6-(((*S)-3-methyl-5,5-dioxido-7,7a,8,9,10,11-hexahydro-6H-dipyrido[2,1-d:2′,3′-f][1,2,5]thiadiazepin-6-yl)methyl)pyridin-2-yl)propanoic Acid], a half-maximal effect in test [1] (EC50) was put at 29.8 nM. In test [2], the Kd is less than 1 nM.

As for `Cc1cnc2c(c1)S(=O)(=O)N(Cc1nc([C@@H](CC(=O)O)c3ccn4c(C(F)(F)F)nnc4c3C)ccc1C)C[C@H]1CCCCN21` (single isomer, unassigned) [Example 491, (*S)-3-(8-Methyl-3-(trifluoromethyl)-[1,2,4]triazolo[4,3-a]pyridin-7-yl)-3-(5-methyl-6-(((*R)-3-methyl-5,5-dioxido-7,7a,8,9,10,11-hexahydro-6H-dipyrido[2,1-d:2′,3′-f][1,2,5]thiadiazepin-6-yl)methyl)pyridin-2-yl)propanoic Acid], in test [1], the EC50 is 5.53 nM. For the same compound, the Kd in test [2] is less than 1 nM.

`Cc1cnc2c(c1)S(=O)(=O)N(Cc1nc([C@H](CC(=O)O)c3ccn4c(C(F)(F)F)nnc4c3C)ccc1C)C[C@H]1CCCCN21` (single isomer, unassigned) [Example 492, (*R)-3-(8-Methyl-3-(trifluoromethyl)-[1,2,4]triazolo[4,3-a]pyridin-7-yl)-3-(5-methyl-6-(((*R)-3-methyl-5,5-dioxido-7,7a,8,9,10,11-hexahydro-6H-dipyrido[2,1-d:2′,3′-f][1,2,5]thiadiazepin-6-yl)methyl)pyridin-2-yl)propanoic Acid] returned an EC50 in test [1] of 12.9 nM. Also, in test [2], the Kd was less than 1 nM.

As for `Cc1ccc([C@@H](CC(=O)O)c2ccn3c(C(F)(F)F)nnc3c2C)nc1CN1CC2(COC2)Oc2ncccc2S1(=O)=O` (single isomer, unassigned) [Example 494, (*S)-3-(6-((1′,1′-Dioxidospiro[oxetane-3,4′-pyrido[2,3-b][1,4,5]oxathiazepin]-2′(3′H)-yl)methyl)-5-methylpyridin-2-yl)-3-(8-methyl-3-(trifluoromethyl)-[1,2,4]triazolo[4,3-a]pyridin-7-yl)propanoic Acid], a half-maximal effect in test [1] (EC50) was put at 577 nM. Moreover, the Kd in test [2] is less than 1 nM.
